This note sets out measurements from publication PMC11096083 (Cancer research, 2024).

The target in test [1] is T1, HSD3B7 (Homo sapiens, UniProt Q9H2F3).
T1 sequence (Q9H2F3 1-369): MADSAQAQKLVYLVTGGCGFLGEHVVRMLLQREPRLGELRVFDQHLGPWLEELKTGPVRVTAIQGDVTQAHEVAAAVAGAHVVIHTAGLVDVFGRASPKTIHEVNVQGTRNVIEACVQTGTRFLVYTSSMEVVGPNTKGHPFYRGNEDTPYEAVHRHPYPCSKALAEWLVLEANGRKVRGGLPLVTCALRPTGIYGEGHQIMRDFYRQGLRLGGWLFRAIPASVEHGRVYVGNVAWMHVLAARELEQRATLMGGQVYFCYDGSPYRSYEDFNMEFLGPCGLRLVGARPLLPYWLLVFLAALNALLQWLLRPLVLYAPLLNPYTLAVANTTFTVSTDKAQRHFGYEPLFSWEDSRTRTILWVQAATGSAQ
The test can be described thus: recombinant HSD3B7 NAD. The class given is biochemical.

The target of test [2] is T1, HSD3B7. The test can be described thus: recombinant HSD3B7 activity by NAD+ reduction to NADH. The class given is biochemical.

On to `CC1=C(O)C(=O)C=C2C1=CC=C1[C@@]2(C)CC[C@@]2(C)[C@@H]3C[C@](C)(C(=O)O)CC[C@]3(C)CC[C@]12C` [celastrol], for which the IC50 result on HSD3B7 [1] is on record as “low micromolar”.

On to `COc1ccc(-c2cc(=O)c3c(O)cc(O)c(-c4cc(-c5cc(=O)c6c(O)cc(O)cc6o5)ccc4OC)c3o2)cc1` [isoginkgetin], for which, on HSD3B7 [1], the IC50 entry is on record as “low micromolar”.

With `NC(=O)c1ccc[n+]([C@@H]2O[C@H](COP(=O)([O-])OP(=O)(O)OC[C@H]3O[C@@H](n4cnc5c(N)ncnc54)[C@H](O)[C@@H]3O)[C@@H](O)[C@H]2O)c1` [NAD+], at HSD3B7 [2], the “recombinant HSD3B7 activity by NAD+ reduction to NADH (fluorescence)” value is “recombinant human HSD3B7 protein, whose enzymatic activity was assessed by monitoring fluorescence induced by NAD^+ reduction to NADH”.
